Experimental data taken from US20250163104A1, “MACROCYCLIC IMMUNOMODULATORS” (priority 2021, published 2025).
Where a SMILES comes first, the peptide text is derived from it. Bridges are numbered along the chain shown (N, C = ends). [ ]: non-standard residue; d: D form. The star is where a group is joined. ξ: configuration not given here. Phe(3-CF3) = N[C@@H](Cc1cccc(C(F)(F)F)c1)C(=O)O; Ala(morpholin-4-yl) = N[C@@H](CN1CCOCC1)C(=O)O; Phe(4-COOH) = N[C@@H](Cc1ccc(C(=O)O)cc1)C(=O)O; Bip = N[C@@H](Cc1ccc(-c2ccccc2)cc1)C(=O)O; Phe(3-Me) = Cc1cccc(C[C@H](N)C(=O)O)c1; 1Nal = N[C@@H](Cc1cccc2ccccc12)C(=O)O; Val(3-OH) = CC(C)(O)[C@H](N)C(=O)O; 4Pal = N[C@@H](Cc1ccncc1)C(=O)O; 2Thi = N[C@@H](Cc1cccs1)C(=O)O; Cha = N[C@@H](CC1CCCCC1)C(=O)O; Cit = NC(=O)NCCC[C@H](N)C(=O)O; Thr(3ξ) = CC(O)[C@H](N)C(=O)O; Ahp(2) = CCCCC[C@H](N)C(=O)O; Carboxymethyl = O=C(O)C*; Orn = NCCC[C@H](N)C(=O)O; Pra = C#CC[C@H](N)C(=O)O; Dab = NCC[C@H](N)C(=O)O; Dap = NC[C@H](N)C(=O)O

What follows are compounds tested against T1, human PD-1 / PD-L1-Ig binding on Jurkat cell line over-expressing human PD-1 (Jurkat-PD-1) (Homo sapiens, UniProt Q15116) (assay: Jurkat-PD-1 Cell Binding High-Content Screening Assay (CBA)). Details: Jurkat-PD-1 cells, PE-labeled PD-L1-Ig 20 nM final; read-out: Jurkat HPD1_PDL1 IC50.
T1 construct: expressed in transfected cells; host or cells: Jurkat
Format: cell-based
Procedure, shortened: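 Jurkat cells over-expressing human PD-1, in DMEM/10% FCS, pre-incubated with compound 2 h at 37° C. PE-labeled human PD-L1-Ig (20 nM final) added for 1 h; cells fixed in paraformaldehyde with Hoechst 33342 nuclear stain, washed, and bound fluorescence quantified by high-content imaging.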

T1 sequence (Q15116 25-288): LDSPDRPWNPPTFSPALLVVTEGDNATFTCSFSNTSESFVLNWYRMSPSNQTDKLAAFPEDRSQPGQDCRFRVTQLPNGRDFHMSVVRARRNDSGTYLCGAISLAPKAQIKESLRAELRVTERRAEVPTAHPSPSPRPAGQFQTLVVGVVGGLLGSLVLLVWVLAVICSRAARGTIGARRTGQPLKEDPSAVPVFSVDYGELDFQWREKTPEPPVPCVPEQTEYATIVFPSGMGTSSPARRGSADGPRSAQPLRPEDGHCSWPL

Question: For CC(C)C[C@H]1NC(=O)[C@H](CCCN)NC(=O)[C@H](Cc2ccc(C(=O)O)cc2)NC(=O)[C@H](Cc2ccc(-c3ccccc3)cc2)NC(=O)[C@H](Cc2cccc3ccccc23)NC(=O)[C@H](Cc2cccc(C(F)(F)F)c2)NC(=O)[C@H](CC(=O)O)NC(=O)[C@H](Cc2ccc(C(=O)O)cc2)NC(=O)[C@H](CN2CCOCC2)NC(=O)CSC[C@@H](C(=O)N[C@@H](CCN)C(N)=O)NC(=O)[C@H](CCC(=O)O)NC(=O)[C@H](C(C)C)NC(=O)[C@H](CC2CCCCC2)NC(=O)[C@H](CCN)NC1=O [Example 2737] ({CH2CO}-[Ala(morpholin-4-yl)][Phe(4-COOH)]D[Phe(3-CF3)][1Nal][Bip][Phe(4-COOH)][Orn][dL][Dab][Cha]VEC[Dab]-NH2; thioether N-14), which IC50 is on record?
Answer: 5.4 nM

Question: With CC[C@H](C)[C@@H]1NC(=O)[C@H](Cc2ccc(-c3ccccc3)cc2)NC(=O)[C@H](C(C)C)NC(=O)[C@H](Cc2c[nH]c3ccccc23)NC(=O)[C@H](CC(=O)O)NC(=O)[C@H](Cc2ccc(OCC(=O)O)cc2)NC(=O)[C@H](CN)NC(=O)CSC[C@@H](C(=O)N[C@@H](C)C(N)=O)NC(=O)[C@H]([C@@H](C)O)NC(=O)[C@H](C(C)C)NC(=O)[C@H](Cc2ccc(O)cc2)NC(=O)[C@H](CCN)NC(=O)[C@@H](CC(C)C)NC(=O)[C@H](CCCN)NC1=O [Compound 1678] ({CH2CO}-[Dap]Y(Carboxymethyl)DWV[Bip]I[Orn][dL][Dab]YVTCA-NH2; thioether N-14) as the compound, how does the IC50 read?
Answer: 52 nM

Question: With C#CC[C@H](NC(=O)[C@H](CCN)NC(=O)[C@@H]1CSCC(=O)N[C@@H](CCCN)C(=O)N[C@@H](Cc2ccc(C(=O)O)cc2)C(=O)N[C@@H](CC(=O)O)C(=O)N[C@@H](Cc2cccc(C)c2)C(=O)N[C@@H](Cc2ccc(C(=O)O)cc2)C(=O)N[C@@H](Cc2ccc(-c3ccccc3)cc2)C(=O)N[C@@H](Cc2ccc(C(=O)O)cc2)C(=O)N[C@@H](CCCN)C(=O)N[C@H](CC(C)C)C(=O)N[C@@H](CCN)C(=O)N[C@@H](CC2CCCCC2)C(=O)N[C@@H](C(C)(C)O)C(=O)N[C@@H](CCCN)C(=O)N1)C(N)=O [Compound 1864] ({CH2CO}-[Orn][Phe(4-COOH)]D[Phe(3-Me)][Phe(4-COOH)][Bip][Phe(4-COOH)][Orn][dL][Dab][Cha][Val(3-OH)][Orn]C[Dab][Pra]-NH2; thioether N-14) as the compound, how does the IC50 read?
Answer: 16.5 nM

Question: With Cc1cccc(C[C@@H]2NC(=O)[C@H](CC(=O)O)NC(=O)[C@H](Cc3ccc(OCC(=O)O)cc3)NC(=O)[C@H](CN)NC(=O)CSC[C@@H](C(=O)N[C@@H](C)C(N)=O)NC(=O)[C@H](Cc3cnc[nH]3)NC(=O)[C@H](C(C)C)NC(=O)[C@H](CC3CCCCC3)NC(=O)[C@H](CCN)NC(=O)[C@@H](CC(C)C)NC(=O)[C@H](CCCN)NC(=O)[C@H](C(C)C)NC(=O)[C@H](Cc3ccc(-c4ccccc4)cc3)NC(=O)[C@H](C(C)C)NC2=O)c1 [Compound 1757] ({CH2CO}-[Dap]Y(Carboxymethyl)D[Phe(3-Me)]V[Bip]V[Orn][dL][Dab][Cha]VHCA-NH2; thioether N-14) as the compound, how does the IC50 read?
Answer: 13.2 nM

Question: With CC(C)C[C@@H]1NC(=O)[C@H](Cc2c[nH]c3ccccc23)NC(=O)[C@H](CC(=O)O)NC(=O)[C@H](Cc2ccc(OCC(=O)O)cc2)NC(=O)[C@H](C(C)O)NC(=O)CSC[C@@H](C(=O)N[C@@H](CC(N)=O)C(N)=O)NC(=O)[C@H](CO)NC(=O)[C@H](C(C)C)NC(=O)[C@H](CC2CCCCC2)NC(=O)[C@H](CCN)NC(=O)[C@@H](CC(C)C)NC(=O)[C@H](CCCN)NC(=O)[C@H](CC(N)=O)NC(=O)[C@H](Cc2ccc(-c3ccccc3)cc2)NC1=O (stereo partly drawn) [Compound 2557] ({CH2CO}-[Thr(3ξ)]Y(Carboxymethyl)DWL[Bip]N[Orn][dL][Dab][Cha]VSCN-NH2; thioether N-14) as the compound, how does the IC50 read?
Answer: 68.6 nM

Question: CC(C)C[C@@H]1NC(=O)[C@H](CCN)NC(=O)[C@@H](CC(C)C)NC(=O)[C@H](CCCN)NC(=O)[C@H](C(C)C)NC(=O)[C@H](Cc2ccc(-c3ccccc3)cc2)NC(=O)[C@H](C(C)C)NC(=O)[C@H](Cc2c[nH]c3ccccc23)NC(=O)[C@H](CC(N)=O)NC(=O)[C@H](Cc2ccc(O)cc2)NC(=O)[C@H](CN)NC(=O)CSC[C@@H](C(=O)N[C@@H](C)C(N)=O)NC(=O)[C@H]([C@@H](C)O)NC(=O)[C@H](C(C)C)NC1=O [Compound 1087] ({CH2CO}-[Dap]YNWV[Bip]V[Orn][dL][Dab]LVTCA-NH2; thioether N-14) was tested. Which IC50 did it give?
Answer: 36.6 nM

Question: For CC(C)C[C@H]1NC(=O)[C@H](CCCN)NC(=O)[C@H](CCC(=O)O)NC(=O)[C@H](Cc2ccc(-c3ccccc3)cc2)NC(=O)[C@H](C(C)C)NC(=O)[C@H](Cc2cccs2)NC(=O)[C@H](CC(=O)O)NC(=O)[C@H](Cc2ccncc2)NC(=O)[C@H](CC(N)=O)NC(=O)CSC[C@@H](C(=O)N[C@@H](C)C(N)=O)NC(=O)[C@H]([C@@H](C)O)NC(=O)[C@H](C(C)C)NC(=O)[C@H](CC2CCCCC2)NC(=O)[C@H](CCN)NC1=O [Compound 2199] ({CH2CO}-N[4Pal]D[2Thi]V[Bip]E[Orn][dL][Dab][Cha]VTCA-NH2; thioether N-14), which IC50 is on record?
Answer: 10.6 nM

Question: Cc1cccc(C[C@@H]2NC(=O)[C@H](CC(=O)O)NC(=O)[C@H](Cc3ccc(C(=O)O)cc3)NC(=O)[C@H](Cc3ccncc3)NC(=O)CSC[C@@H](C(N)=O)NC(=O)[C@H](CO)NC(=O)[C@H](C(C)C)NC(=O)[C@H](CC3CCCCC3)NC(=O)[C@H](CCN)NC(=O)[C@@H](CC(C)C)NC(=O)[C@H](CCCN)NC(=O)[C@H](CCCNC(N)=O)NC(=O)[C@H](Cc3ccc(-c4ccccc4)cc3)NC(=O)[C@H](C(C)C)NC2=O)c1 [Compound 2268] ({CH2CO}-[4Pal][Phe(4-COOH)]D[Phe(3-Me)]V[Bip][Cit][Orn][dL][Dab][Cha]VSC-NH2; thioether N-14) was tested. Which IC50 did it give?
Answer: 26.8 nM

Question: CCC[C@@H]1NC(=O)[C@H](Cc2c[nH]c3ccccc23)NC(=O)[C@H](CC(=O)O)NC(=O)[C@H](Cc2ccc(OCC(=O)O)cc2)NC(=O)[C@H](CN)NC(=O)CSC[C@@H](C(=O)N[C@@H](C)C(N)=O)NC(=O)[C@H]([C@@H](C)O)NC(=O)[C@H](C(C)C)NC(=O)[C@H](CC2CCCCC2)NC(=O)[C@H](CCN)NC(=O)[C@@H](CC(C)C)NC(=O)[C@H](CCCN)NC(=O)[C@H]([C@@H](C)CC)NC(=O)[C@H](Cc2ccc(-c3ccccc3)cc2)NC1=O [Compound 1727] was tested. Which IC50 did it give?
Answer: 9.1 nM

Question: With CC(C)C[C@H]1NC(=O)[C@H](CCCN)NC(=O)[C@H](C(C)C)NC(=O)[C@H](Cc2ccc(-c3ccccc3)cc2)NC(=O)[C@H](C(C)C)NC(=O)[C@H](Cc2c[nH]c3ccccc23)NC(=O)[C@H](CC(=O)O)NC(=O)[C@H](Cc2ccc(C(=O)O)cc2)NC(=O)[C@H](Cc2ccc(OCC(=O)O)cc2)NC(=O)CSC[C@@H](C(=O)N[C@@H](C)C(N)=O)NC(=O)[C@H](Cc2cnc[nH]2)NC(=O)[C@H](C(C)C)NC(=O)[C@H](CC2CCCCC2)NC(=O)[C@H](CCN)NC1=O [Compound 1751] ({CH2CO}-Y(Carboxymethyl)[Phe(4-COOH)]DWV[Bip]V[Orn][dL][Dab][Cha]VHCA-NH2; thioether N-14) as the compound, how does the IC50 read?
Answer: 7.8 nM

Question: For CC(C)C[C@@H]1NC(=O)[C@H](Cc2c[nH]c3ccccc23)NC(=O)[C@H](CC(=O)O)NC(=O)[C@H](Cc2ccc(O)cc2)NC(=O)[C@H](Cc2ccccc2)NC(=O)CSC[C@@H](C(=O)NCC(N)=O)NC(=O)[C@H](CO)NC(=O)[C@H](C(C)C)NC(=O)[C@H](CC(C)C)NC(=O)[C@H](CC(N)=O)NC(=O)[C@@H](C)NC(=O)[C@H](CN)NC(=O)[C@H](C(C)C)NC(=O)[C@H](Cc2ccc(-c3ccccc3)cc2)NC1=O [Compound 1077] ({CH2CO}-FYDWL[Bip]V[Dap][dA]NLVSCG-NH2; thioether N-14), which IC50 is on record?
Answer: 46.7 nM

Question: Which IC50 does the source give for CCC(C)[C@@H]1NC(=O)[C@H](Cc2ccc(-c3ccccc3)cc2)NC(=O)[C@H](C(C)C)NC(=O)[C@H](Cc2c[nH]c3ccccc23)NC(=O)[C@H](CC(=O)O)NC(=O)[C@H](Cc2ccc(-c3cccc(C(=O)O)c3)cc2)NC(=O)[C@H](CN)NC(=O)CSC[C@@H](C(=O)N[C@@H](C)C(N)=O)NC(=O)[C@H]([C@@H](C)O)NC(=O)[C@H](C(C)C)NC(=O)[C@H](CC2CCCCC2)NC(=O)[C@H](CCN)NC(=O)[C@@H](CC(C)C)NC(=O)[C@H](CCCN)NC1=O (stereo partly drawn) [Compound 2219] here?
Answer: 13.4 nM

Question: How did the IC50 turn out when CC(C)[C@@H]1NC(=O)[C@H](Cc2c[nH]c3ccccc23)NC(=O)[C@H](CC(=O)O)NC(=O)[C@H](Cc2ccncc2)NC(=O)[C@H](Cc2ccc(OCC(=O)O)cc2)NC(=O)CSC[C@@H](C(=O)N[C@@H](C)C(N)=O)NC(=O)[C@H]([C@@H](C)O)NC(=O)[C@H](C(C)C)NC(=O)[C@H](CC2CCCCC2)NC(=O)[C@H](CCN)NC(=O)[C@@H](Cc2ccc(O)cc2)NC(=O)[C@H](CCCN)NC(=O)[C@H](CCC(=O)O)NC(=O)[C@H](Cc2ccc(-c3ccccc3)cc2)NC1=O [Compound 1447] ({CH2CO}-Y(Carboxymethyl)[4Pal]DWV[Bip]E[Orn][dY][Dab][Cha]VTCA-NH2; thioether N-14) was run?
Answer: 29.8 nM

Question: For CCCCC[C@@H]1NC(=O)[C@H](CCN)NC(=O)[C@@H](CC(C)C)NC(=O)[C@H](CCCN)NC(=O)[C@H](CCCNC(N)=O)NC(=O)[C@H](Cc2ccc(-c3ccccc3)cc2)NC(=O)[C@H](C(C)C)NC(=O)[C@H](Cc2c[nH]c3ccccc23)NC(=O)[C@H](CC(=O)O)NC(=O)[C@H](Cc2ccc(OCC(=O)O)cc2)NC(=O)[C@H](CN)NC(=O)CSC[C@@H](C(=O)N[C@@H](C)C(N)=O)NC(=O)[C@H]([C@@H](C)O)NC(=O)[C@H](C(C)C)NC1=O [Compound 1347] ({CH2CO}-[Dap]Y(Carboxymethyl)DWV[Bip][Cit][Orn][dL][Dab][Ahp(2)]VTCA-NH2; thioether N-14), which IC50 is on record?
Answer: 26.4 nM

Question: With CC(C)C[C@@H]1NC(=O)[C@H](CCN)NC(=O)[C@@H](CC(C)C)NC(=O)[C@H](CCCN)NC(=O)[C@H](CCCNC(N)=O)NC(=O)[C@H](Cc2ccc(-c3ccccc3)cc2)NC(=O)[C@H](C(C)C)NC(=O)[C@H](Cc2c[nH]c3ccccc23)NC(=O)[C@H](CC(=O)O)NC(=O)[C@H](Cc2ccc(O)cc2)NC(=O)[C@H](CC(N)=O)NC(=O)CSC[C@@H](C(=O)N[C@@H](C)C(N)=O)NC(=O)[C@H](CO)NC(=O)[C@H](C(C)C)NC1=O [Compound 1109] ({CH2CO}-NYDWV[Bip][Cit][Orn][dL][Dab]LVSCA-NH2; thioether N-14) as the compound, how does the IC50 read?
Answer: 36 nM
